Reference: the SangsterLogP compilation

Assay: method code SF-AS, from DOI: 10.2298/jsc0810967p
Details: pH 7.4

| Compound | logD |
| --- | --- |
| COc1cccc(Cn2cnc3cc(C)c(C)cc32)c1 | 4.28 |
| Cc1cc2ncn(Cc3cccc(Cl)c3)c2cc1C | 5.05 |
| Cc1cc2ncn(Cc3cccc(F)c3)c2cc1C | 4.5 |
| Cc1cccc(Cn2cnc3cc(C)c(C)cc32)c1 | 4.85 |
